Laboratory results published in ChEMBL document CHEMBL5096194, “Development of Alectinib-Based PROTACs as Novel Potent Degraders of Anaplastic Lymphoma Kinase (ALK)” (J Med Chem, 2021).
Calls of active or inactive are those of the source. The calls are words filed in the database; no cut-off is given here.

Legend:
[1] = Half life in Sprague-Dawley rat at 1 mg/kg, iv administered as single dose measured for 24 hrs by LC-MS/MS analysis; assay type: ADME, organism-based; conditions: in vivo
[2] = Toxicity in NCG mouse xenografted with human KARPAS-299 cells assessed as kidney damage at 10 mg/kg, iv administered once every day for 3 weeks by H and E staining based analysis; assay type: organism-based; conditions: in vivo, 504 h
[3] = Cmax in Sprague-Dawley rat at 50 mg/kg, ip administered as single dose measured for 24 hrs by LC-MS/MS analysis; assay type: ADME, organism-based; design: dose 50 mg/kg, time 24 hrs, route ip; conditions: in vivo
[4] = MRTlast in Sprague-Dawley rat at 1 mg/kg, iv administered as single dose measured for 24 hrs by LC-MS/MS analysis; assay type: ADME, organism-based; conditions: in vivo
[5] = biological target: NPM/ALK (Nucleophosmin/ALK tyrosine kinase receptor) (Homo sapiens) (UniProt Q9UM73+P06748); assay: Induction of NPM-ALK degradation in human KARPAS-299 cells assessed as reduction in NPM-ALK protein level at 1 uM measured after 24 hrs by Western blot analysis; assay type: cell-based
Chain of NPM/ALK (Nucleophosmin/ALK tyrosine kinase receptor) (Homo sapiens) (P06748 whole entry partner): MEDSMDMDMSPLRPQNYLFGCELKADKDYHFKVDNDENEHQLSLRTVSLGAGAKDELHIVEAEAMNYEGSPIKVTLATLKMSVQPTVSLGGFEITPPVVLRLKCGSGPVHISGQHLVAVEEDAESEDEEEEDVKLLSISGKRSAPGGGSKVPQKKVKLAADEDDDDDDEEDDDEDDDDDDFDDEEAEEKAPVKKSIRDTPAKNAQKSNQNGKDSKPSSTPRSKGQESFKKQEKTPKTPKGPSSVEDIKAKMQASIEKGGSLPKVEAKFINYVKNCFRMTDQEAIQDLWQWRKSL
Chain of NPM/ALK (Nucleophosmin/ALK tyrosine kinase receptor) (Homo sapiens) (Q9UM73 19-1620 limits assumed): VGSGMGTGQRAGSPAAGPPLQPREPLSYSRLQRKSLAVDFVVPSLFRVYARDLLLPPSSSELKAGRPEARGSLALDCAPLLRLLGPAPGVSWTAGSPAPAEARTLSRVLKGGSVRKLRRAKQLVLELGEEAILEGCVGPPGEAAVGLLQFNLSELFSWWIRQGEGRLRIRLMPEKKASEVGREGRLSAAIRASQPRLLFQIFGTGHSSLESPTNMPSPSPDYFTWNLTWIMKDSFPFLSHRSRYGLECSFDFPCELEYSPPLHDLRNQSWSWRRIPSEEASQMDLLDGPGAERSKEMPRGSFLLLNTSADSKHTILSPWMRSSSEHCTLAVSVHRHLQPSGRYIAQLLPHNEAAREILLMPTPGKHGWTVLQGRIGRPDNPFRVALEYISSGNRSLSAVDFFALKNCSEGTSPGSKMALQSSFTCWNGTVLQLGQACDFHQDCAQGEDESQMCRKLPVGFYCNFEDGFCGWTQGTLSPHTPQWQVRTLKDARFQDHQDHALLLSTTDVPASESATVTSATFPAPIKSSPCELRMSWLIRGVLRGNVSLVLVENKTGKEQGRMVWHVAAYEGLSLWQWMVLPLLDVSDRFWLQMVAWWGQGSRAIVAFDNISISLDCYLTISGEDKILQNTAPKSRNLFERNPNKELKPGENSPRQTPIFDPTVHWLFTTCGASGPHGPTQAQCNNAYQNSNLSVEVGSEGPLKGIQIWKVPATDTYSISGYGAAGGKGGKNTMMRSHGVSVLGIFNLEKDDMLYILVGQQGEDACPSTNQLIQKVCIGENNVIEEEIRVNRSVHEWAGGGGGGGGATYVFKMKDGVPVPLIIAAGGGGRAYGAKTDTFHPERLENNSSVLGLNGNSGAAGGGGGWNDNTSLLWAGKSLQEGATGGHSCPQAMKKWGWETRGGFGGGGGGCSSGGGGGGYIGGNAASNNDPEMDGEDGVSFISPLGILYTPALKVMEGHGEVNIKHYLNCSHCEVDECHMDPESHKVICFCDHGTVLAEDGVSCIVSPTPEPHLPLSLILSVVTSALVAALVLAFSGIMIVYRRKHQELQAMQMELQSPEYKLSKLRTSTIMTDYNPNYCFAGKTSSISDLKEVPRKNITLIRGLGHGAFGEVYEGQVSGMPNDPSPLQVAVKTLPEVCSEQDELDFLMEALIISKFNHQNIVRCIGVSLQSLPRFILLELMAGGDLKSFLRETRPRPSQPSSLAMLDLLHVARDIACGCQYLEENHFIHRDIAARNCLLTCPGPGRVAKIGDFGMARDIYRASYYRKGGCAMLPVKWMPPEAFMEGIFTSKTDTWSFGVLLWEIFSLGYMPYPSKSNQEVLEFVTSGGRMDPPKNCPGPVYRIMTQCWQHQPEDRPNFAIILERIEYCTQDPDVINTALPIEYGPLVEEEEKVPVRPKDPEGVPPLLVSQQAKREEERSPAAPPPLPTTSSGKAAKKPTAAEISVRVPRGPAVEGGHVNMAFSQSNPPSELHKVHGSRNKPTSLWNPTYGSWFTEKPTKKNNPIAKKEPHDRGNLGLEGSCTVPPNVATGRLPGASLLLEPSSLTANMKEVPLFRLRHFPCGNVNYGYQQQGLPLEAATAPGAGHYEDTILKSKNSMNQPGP

[6] = system: KARPAS-299; assay: Downregulation of ALK protein expression in human KARPAS-299 cells at 1 uM incubated for 24 hrs by iTRAQ proteomics analysis; assay type: functional, cell-based
[7] = In vivo induction of degradation of ALK in human KARPAS-299 cells xenografted in NCG mouse assessed as reduction in ALK protein expression in tumor at 10 mg/kg, iv administered as single dose measured after 12 hrs by immunoblot analysis relative to control; assay type: functional; design: scale not given: the % may be the effect or the level left
[8] = biological target: T1, ALK tyrosine kinase receptor (Homo sapiens, UniProt Q9UM73); assay: Inhibition of ALK phosphorylation in human KARPAS-299 cells at 1 uM incubated for 24 hrs followed by compound washout and measured after 72 hrs by Western blot analysis; assay type: cell-based
T1 sequence (Q9UM73 19-1620 limits assumed): as above

[9] = biological target: T2, Protein cereblon/ALK tyrosine kinase receptor/Echinoderm microtubule-associated protein-like 4 (Homo sapiens) (UniProt Q9UM73+Q9HC35+Q96SW2); assay: Protac activity at CRBN/EML4-ALK in human NCI-H3122 cells assessed as induction of EML4-ALK fusion protein degradation at 1 uM incubated for 16 hrs by Western blot analysis relative to control; assay type: cell-based
T2 sequence (Q96SW2 whole entry partner, the tested form may be a part): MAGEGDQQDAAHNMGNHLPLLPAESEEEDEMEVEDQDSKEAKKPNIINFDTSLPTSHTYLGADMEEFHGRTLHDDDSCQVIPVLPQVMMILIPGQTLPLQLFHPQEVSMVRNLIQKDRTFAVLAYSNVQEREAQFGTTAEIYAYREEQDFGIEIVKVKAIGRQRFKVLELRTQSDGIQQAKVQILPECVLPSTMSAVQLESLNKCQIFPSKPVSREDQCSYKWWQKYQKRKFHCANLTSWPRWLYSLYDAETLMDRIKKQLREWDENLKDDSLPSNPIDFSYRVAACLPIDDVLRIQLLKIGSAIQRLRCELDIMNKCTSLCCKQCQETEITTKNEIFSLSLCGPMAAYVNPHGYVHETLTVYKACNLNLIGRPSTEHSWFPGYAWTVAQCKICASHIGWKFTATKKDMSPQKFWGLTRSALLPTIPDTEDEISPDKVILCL
T2 sequence (Q9HC35 whole entry partner, the tested form may be a part): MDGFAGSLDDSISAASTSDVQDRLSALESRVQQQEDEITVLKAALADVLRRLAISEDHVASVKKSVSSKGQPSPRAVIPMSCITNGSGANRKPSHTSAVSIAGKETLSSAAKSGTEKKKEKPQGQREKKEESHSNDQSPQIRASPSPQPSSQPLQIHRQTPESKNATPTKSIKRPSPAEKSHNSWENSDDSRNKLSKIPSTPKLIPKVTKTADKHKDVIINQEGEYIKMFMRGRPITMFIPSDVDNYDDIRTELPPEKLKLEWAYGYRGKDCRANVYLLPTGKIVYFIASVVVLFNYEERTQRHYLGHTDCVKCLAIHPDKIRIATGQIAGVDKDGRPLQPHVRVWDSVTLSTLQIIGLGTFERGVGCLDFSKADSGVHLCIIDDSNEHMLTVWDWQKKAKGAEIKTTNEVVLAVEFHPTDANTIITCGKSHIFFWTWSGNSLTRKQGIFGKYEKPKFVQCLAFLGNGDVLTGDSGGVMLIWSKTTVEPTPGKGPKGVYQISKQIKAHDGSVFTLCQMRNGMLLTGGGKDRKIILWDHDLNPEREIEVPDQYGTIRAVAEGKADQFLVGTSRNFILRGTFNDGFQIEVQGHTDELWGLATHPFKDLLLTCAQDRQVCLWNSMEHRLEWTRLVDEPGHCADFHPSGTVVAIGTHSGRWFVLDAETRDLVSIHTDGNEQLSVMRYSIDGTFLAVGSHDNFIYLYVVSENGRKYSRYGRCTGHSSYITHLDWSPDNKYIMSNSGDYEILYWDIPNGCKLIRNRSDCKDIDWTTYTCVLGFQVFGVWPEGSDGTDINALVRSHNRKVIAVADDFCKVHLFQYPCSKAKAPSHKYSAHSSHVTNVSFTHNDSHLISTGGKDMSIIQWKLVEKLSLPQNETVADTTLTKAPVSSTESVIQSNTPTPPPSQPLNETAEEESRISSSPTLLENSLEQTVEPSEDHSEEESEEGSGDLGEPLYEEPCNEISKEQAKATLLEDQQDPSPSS
T2 sequence (Q9UM73 19-1620 limits assumed): as the sequence (Q9UM73 19-1620 limits assumed) above

[10] = biological target: Protein cereblon/ALK tyrosine kinase receptor/Nucleophosmin (Homo sapiens, UniProt P06748+Q96SW2+Q9UM73); assay: Protac activity at CRBN/NPM-ALK in human KARPAS-299 cells assessed as induction of NPM-ALK fusion protein degradation incubated for 48 hrs by Western blot analysis; assay type: cell-based
[11] = system: BaF3; assay: Antiproliferative activity against crizotinib-resistant mouse BaF3 cells expressing EML-ALK G1202R mutant assessed as cell viability at 1 uM incubated for 72 hrs by Celltitre-Glo assay relative to control; assay type: functional; conditions: read-out: Activity
[12] = system: KARPAS-299; assay: Antiproliferative activity against ALK-positive human KARPAS-299 cells assessed as inhibition of cell proliferation measured after 72 hrs by MTT assay; assay type: functional, cell-based; conditions: KARPAS-299, 72 h
[13] = system: BaF3; assay: Antiproliferative activity against mouse BaF3 cells expressing wild type EML-ALK assessed as cell viability at 1 uM incubated for 72 hrs by Celltitre-Glo assay relative to control; assay type: functional; conditions: read-out: Activity
[14] = system: BaF3; assay: Antiproliferative activity against crizotinib-resistant mouse BaF3 cells expressing EML-ALK L1196M mutant assessed as cell viability at 1 uM incubated for 72 hrs by Celltitre-Glo assay relative to control; assay type: functional; conditions: read-out: Activity
[15] = biological target: T2, Protein cereblon/ALK tyrosine kinase receptor/Echinoderm microtubule-associated protein-like 4 (Homo sapiens); assay: Protac activity at CRBN/EML4-ALK in human NCI-H3122 cells assessed as reduction in EML4-ALK fusion protein level at 100 nM measured after 16 hrs by Western blot analysis relative to control; assay type: cell-based; design: scale not given: the % may be the effect or the level left
[16] = system: KARPAS-299; assay: Downregulation of SESN2 protein expression in human KARPAS-299 cells at 1 uM incubated for 24 hrs by iTRAQ proteomics analysis; assay type: functional, cell-based
[17] = biological target: T1, ALK tyrosine kinase receptor; assay: Inhibition of ALK phosphorylation in human KARPAS-299 cells at 100 nM measured after 48 hrs by Western blot analysis; assay type: cell-based
[18] = system: KARPAS-299; assay: Antitumor activity against human KARPAS-299 cells xenografted in NCG mouse assessed as reduction in tumor weight at 5 to 10 mg/kg, iv administered once every day for 3 weeks and measured every 3 days; assay type: functional, organism-based; conditions: dose 5-10 mg/kg
[19] = In vivo induction of degradation of ALK in human KARPAS-299 cells xenografted in NCG mouse assessed as ALK protein expression in tumor at 10 mg/kg, iv administered as single dose measured after 24 hrs by immunoblot analysis relative to control; assay type: functional
[20] = biological target: Protein cereblon/ALK tyrosine kinase receptor/Nucleophosmin (Homo sapiens) (UniProt Q9UM73+P06748+Q96SW2); assay: Protac activity at CRBN/NPM-ALK in human KARPAS-299 cells assessed as induction of NPM-ALK fusion protein degradation at 2 uM incubated for 24 hrs by Western blot analysis; assay type: cell-based
Chain of Protein cereblon/ALK tyrosine kinase receptor/Nucleophosmin (Homo sapiens) (P06748 whole entry partner, the tested form may be a part): as the sequence (P06748 whole entry partner) above
Chain of Protein cereblon/ALK tyrosine kinase receptor/Nucleophosmin (Homo sapiens) (Q96SW2 whole entry partner, the tested form may be a part): as the sequence (Q96SW2 whole entry partner, the tested form may be a part) above
Chain of Protein cereblon/ALK tyrosine kinase receptor/Nucleophosmin (Homo sapiens) (Q9UM73 19-1620 limits assumed): as the sequence (Q9UM73 19-1620 limits assumed) above

[21] = biological target: Signal transducer and activator of transcription 3 (Homo sapiens) (UniProt P40763); assay: Inhibition of STAT3 phosphorylation in human KARPAS-299 cells as 0.01 to 1 uM measured after 24 hrs by Western blot analysis; assay type: cell-based; conditions: dose 0.01-1 µM
Chain of Signal transducer and activator of transcription 3 (Homo sapiens) (P40763 whole entry, the tested form may be a part): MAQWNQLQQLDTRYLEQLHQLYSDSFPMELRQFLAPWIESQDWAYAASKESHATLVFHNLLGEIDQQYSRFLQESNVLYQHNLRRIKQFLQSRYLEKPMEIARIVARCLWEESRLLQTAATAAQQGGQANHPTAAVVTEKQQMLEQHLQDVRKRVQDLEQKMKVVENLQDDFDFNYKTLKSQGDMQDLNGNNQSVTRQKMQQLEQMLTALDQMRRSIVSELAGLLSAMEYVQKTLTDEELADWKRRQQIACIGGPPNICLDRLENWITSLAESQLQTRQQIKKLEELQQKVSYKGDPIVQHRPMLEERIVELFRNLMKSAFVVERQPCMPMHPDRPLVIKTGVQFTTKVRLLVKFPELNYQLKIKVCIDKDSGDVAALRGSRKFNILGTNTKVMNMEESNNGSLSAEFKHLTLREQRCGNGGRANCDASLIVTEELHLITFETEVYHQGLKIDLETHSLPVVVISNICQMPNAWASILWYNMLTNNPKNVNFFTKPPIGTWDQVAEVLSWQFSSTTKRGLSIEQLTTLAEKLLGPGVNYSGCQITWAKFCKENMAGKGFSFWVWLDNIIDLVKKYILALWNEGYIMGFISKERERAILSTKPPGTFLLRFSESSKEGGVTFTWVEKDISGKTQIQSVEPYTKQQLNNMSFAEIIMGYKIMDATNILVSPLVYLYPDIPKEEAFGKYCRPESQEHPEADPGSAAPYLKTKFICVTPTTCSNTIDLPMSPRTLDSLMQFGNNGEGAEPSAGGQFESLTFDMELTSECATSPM

[22] = biological target: Protein cereblon/ALK tyrosine kinase receptor/Echinoderm microtubule-associated protein-like 4 (Homo sapiens, UniProt Q96SW2+Q9HC35+Q9UM73); assay: Protac activity at CRBN/EML4-ALK in human NCI-H3122 cells assessed as induction of EML4-ALK fusion protein degradation incubated for 16 hrs by Western blot analysis; assay type: cell-based
[23] = Volume of distribution in Sprague-Dawley rat at 50 mg/kg, ip administered as single dose measured for 24 hrs by LC-MS/MS analysis; assay type: ADME, organism-based; conditions: in vivo

SMILES: CCc1cc2c(cc1N1CCN(C(=O)CNc3cccc4c3C(=O)N(C3CCC(=O)NC3=O)C4=O)CC1)C(C)(C)c1[nH]c3cc(C#N)ccc3c1C2=O (stereo not drawn)
- half-life [1]: 25.2 min
- Activity [2]: Non-Toxic
- Cmax [3]: 109 ng/mL
- MRT last at 24 h [4]: 4.2 min
- Activity [5]: Active
- Activity [6]: Active
- Activity [7]: >85%
- inhibition [8]: Active
- Activity [9]: 83.6%
- EC50 [10]: 116 nM
- viability at 1 µM [11]: 77.6%
- IC50 [12]: 42 nM
- viability at 1 µM [13]: 0.1%
- viability at 1 µM [14]: 6.1%
- Activity [15]: 22.6%
- Activity [16]: Active
- inhibition [17]: Active
- Activity [18]: Active
- Activity [19]: 18.7%
- Activity [20]: Active
- inhibition [21]: Active
- EC50 [22]: 27.4 nM
- Vd [23]: 1685.67 L/kg
